Measured values: patent publication US8703821B2, “Dialkyl ether delivery agents” (Emisphere Technologies Inc., priority 2006, dated 2014)

Columns and labels:
[1] = Insulin oral delivery in rats; format: in vivo, rat; conditions: oral gavage to fasted male Sprague-Dawley rats; dosing solution delivery agent 200 mg/ml + human recombinant insulin 0.5 mg/ml
[2] = Heparin (LMWH) oral delivery in rats, plasma LMWH by anti-Factor Xa assay; format: in vivo, rat; conditions: male Sprague-Dawley rats, delivery agent 300 mg/kg, LMWH 100 IU/kg, volume 3 ml/kg, 25% aqueous propylene glycol
Method: Oral dosing solutions containing delivery agent compound and heparin sodium USP were prepared in 25% aqueous propylene glycol. Either the sodium salt of the delivery agent compound was used or the free acid was converted to the sodium salt with one equivalent of sodium hydroxide. The delivery agent compound and heparin (about 166-182 IU/mg) were mixed by vortex as dry powders. This dry mixture was dissolved in 25% v/v aqueous propylene glycol, vortexed, and placed in a sonicator (about 37° C.). The pH was adjusted to about 7 (6.5-8.5) with aqueous NaOH (2N). The dosing solution was sonicated to produce a clear solution. The final volume was adjusted to about 3.0 ml.
Male Sprague-Dawley rats were fasted for 24 hours and anesthetized with ketamine hydrochloride (88 mg/kg) intramuscularly immediately prior to dosing and again as needed to maintain anesthesia. A dosing group of five animals were administered one of the dosing solutions. An 11 cm Rusch 8 French catheter was adapted to a 1 ml syringe with a pipette tip. […]
Citrated blood samples were collected by cardiac puncture following the administration of ketamine (88 mg/kg), typically at 0.25, 0.5, 1.0 and 1.5 hours after dosing. […] LMWH absorption was verified by an increase in plasma LMWH measured by the anti-Factor Xa assay CHROMOSTRATE™ Heparin anti-Xa assay (available from Organon Teknika Corporation, Durham, N.C.).

Row | SMILES | % Glucose Cmin (Rat) [1] | melting point | Mean Peak Plasma LMWH Concentration (IU/ml) ± SD [2]
1 | Cc1ccccc1CCOCC(=O)O [Compound 1, (2-o-Tolyl-ethoxy)-acetic acid] | −36.5% | – | –
2 | Cc1ccc(CCOCC(=O)O)cc1 [Compound 2] | −54.3% | 50 to 52 °C | –
3 | Cc1cccc(CCOCC(=O)O)c1 [Compound 3, Sodium (2-m-Tolyl-ethoxy)-acetate] | −30.1% | – | –
4 | O=C(O)COCCc1ccc(Cl)cc1 [Compound 4] | −54.3% | 51 to 52 °C | –
5 | O=C(O)COCCc1ccccc1Cl [Compound 5] | −39.7% | – | –
6 | O=C(O)COCCc1cccc(Cl)c1 [Compound 6] | −20.9% | – | –
7 | O=C(O)COCCc1ccc(F)cc1 [Compound 7] | −41.9% | 67 to 68 °C | –
8 | O=C(O)COCCc1ccccc1F [Compound 8] | −33.5% | – | –
9 | O=C(O)COCCc1cccc(F)c1 [Compound 9] | −29.3% | 36 to 37 °C | –
10 | Cc1ccc(COCC(=O)O)cc1 [Compound 10] | −46.6% | 44 to 45 °C | –
11 | Cc1cccc(COCC(=O)O)c1 [Compound 11] | −23.7% | – | –
12 | O=C(O)COCc1ccc(Cl)cc1 [Compound 13] | −45.3% | – | –
13 | O=C(O)COCc1cccc(Cl)c1 [Compound 14] | −35.3% | – | –
14 | O=C(O)COCc1ccccc1Cl [Compound 15] | −39.9% | – | –
15 | O=C(O)COCc1ccc(F)cc1 [Compound 16] | −18.1% | – | –
16 | O=C(O)COCc1cccc(F)c1 [Compound 17] | −17.6% | – | –
17 | O=C(O)COCc1ccccc1F [Compound 18] | −14.6% | – | –
18 | Cc1cc(C)c(COCC(=O)O)c(C)c1 [Compound 19, (2,4,6-Trimethyl-benzyloxy)-acetic acid] | −27.5% | 81 to 83 °C | –
19 | Cc1cc(C)c(C)c(COCC(=O)O)c1C [Compound 20] | – | 103 to 105 °C | –
20 | Cc1ccc(C)c(COCC(=O)O)c1 [Compound 21] | −35.0% | 74 to 75 °C | –
21 | Cc1ccc(COCC(=O)O)c(C)c1 [Compound 22] | – | 54 to 56 °C | –

Row | SMILES | % Glucose Cmin (Rat) [1] | melting point | Mean Peak Plasma LMWH Concentration (IU/ml) ± SD [2]
22 | Cc1ccc(COCC(=O)O)cc1Cl [Compound 23] | −5.5% | 53 to 54 °C | –
23 | Cc1ccc(C)c(CCOCC(=O)O)c1 [Compound 24] | −24.7% | 42 to 43 °C | –
24 | Cc1cc(C)cc(CCOCC(=O)O)c1 [Compound 25] | −4.6% | 50 to 51 °C | –
25 | O=C(O)COCCCCc1ccccc1 [Compound 26] | −21.0% | – | –
26 | O=C(O)COCCc1ccccc1C(F)(F)F [Compound 27] | −11.3% | – | –
27 | COc1ccc(CCCCOCC(=O)O)cc1 [Compound 28] | −10.6% | – | –
28 | COc1ccc(CCCOCC(=O)O)cc1 [Compound 29] | −36.3% | – | –
29 | Cc1ccc(CCCOCC(=O)O)cc1 [Compound 30] | −19.5% | – | –
30 | Cc1ccccc1CCCOCC(=O)O [Compound 31] | −6.1% | – | –
31 | O=C(O)COCCCCCc1ccccc1 [Compound 32] | −15.1% | – | –
32 | COc1ccc(CCOCC(=O)O)cc1 [Compound 33] | −9.8% | – | –
33 | O=C(O)COCCc1ccccc1 [Compound 34] | −32.2% | – | –
34 | O=C(O)COCCCc1ccccc1 [Compound 35] | −26.1% | – | –
35 | COc1ccccc1CCOCC(=O)O [Compound 36] | −4.4% | – | –
36 | O=C(O)COCCc1ccc(F)cc1Cl [Compound 37] | −30.0% | – | –
37 | O=C(O)COCCc1ccc(Br)cc1 [Compound 39] | −31.6% | – | –
38 | O=C(O)COC1Cc2ccccc2C1 [Compound 40] | −15.8% | – | –
39 | O=C(O)COC1CCc2ccccc21 (stereo not drawn) [Compound 41] | −27.8% | – | –
40 | O=C(O)COCCCc1ccc(Cl)cc1 [Compound 42] | −20.4% | – | –
41 | O=C([O-])CCCCCCCNC(=O)c1ccccc1O.[Na+] [Delivery Agent A, monosodium salt of N-(8-[2-hydroxybenzoyl]-amino)caprylic acid] | – | – | 0.984 IU/ml
